{"source": "patent US20100034839A1", "about": "“METHODS FOR TREATING VIRAL DISORDERS” (priority 2008, published 2010)", "key": {"B cell surface CLIP": {"system": "B cell surface CLIP", "assay": "B cell surface CLIP after 2-Deoxyglucose and dichloroacetate (FIG. 4)", "type": "cell-based"}, "mouse splenic B cells": {"system": "mouse splenic B cells", "assay": "TLR activation of mouse splenic B cells: ectopic CLIP in MHC class II", "type": "cell-based", "conditions": "for exogenous CLIP expression on activated mouse B cells: treatment in vitro with Toll ligand, FIG. 12d", "description": "FIG. 12 depicts TLR activation of mouse splenic B cells results in ectopic CLIP in MHC class II. FIG. 12a: LPS activation of spleen cells from B6.129 mice (H-2b). B cells are detected by staining with PE conjugated anti-mouse B220, shown on Y-axis, versus staining with 15G4-FITC anti-mouse CLIP/I-Ab, as shown on the X-axis. A representative of four experiments at unique time points, 0 to 72 hours by 24-hour increments, left to right, is shown. FIG. 12b (linear representation from FIG. 12a): changes in percentages of CLIP+ B cells, left Y-axis, and quantitative depiction of increasing mean fluorescence intensity of CLIP/I-Ab staining, right Y-axis. FIG. 12c: antigen receptor engagement increases cell surface MHC class II but not ectopic CLIP. B6.129 splenocytes, untreated or treated in vitro with anti-immunoglobulin (as a surrogate for antigen) or CpG-ODN were stained with anti-mouse B220-PE versus 15G4-FITC anti-mouse CLIP/I-Ab (bars, left Y-axis) or with anti-mouse B220-PE versus anti-mouse MHC class II-FITC (I-Ab) (line graph, right Y-axis). FIG. 12d: toll ligands 9, 10 used to activate cells, listed from top down, Poly I:C, Pam3Cys, R848, LPS, CpG-ODN, and no treatment, as indicated. Shown are percentages of CLIP+ B cells in splenocytes stimulated […] from B6.129 mice, left panel; H2M-deficient mice, middle panel; Ii-deficient mice, right panel.\nTotal splenocytes, from either B6.129, Ii-deficient, or H2M-deficient mice were cultured with LPS for 24, 48, 72, or 96 hours as indicated. Cells were harvested and stained by two-color fluorescence using 15G4-FITC anti-mouse CLIP/I-A^b versus anti-mouse B220 PE.\nFreshly isolated splenocytes, single cell suspensions of lymph node cells, resting (or activated) B cells, or primed B cells were isolated from B6.129, Ii-deficient, or H2M-deficient mice and cultured in 24 well plates in complete RPMI medium, with or without the appropriate Toll ligand, at 10^6 cells/ml. Cells were cultured for 24, 48, 72, 96, or up to 144 hours. Cells were harvested and stained by flow cytometric analysis using either a Beckman Coulter Excel or a Beckman Coulter FC500 flow cytometer. Cells were stained by two-color fluorescence using 15G4-FITC anti-mouse CLIP/I-A^b versus anti-mouse B220 PE. For co-culture experiments (5×10^5) were combined with T cells (5×10^4) in 24 well plates in complete medium, with or without the appropriate antigen. Experiments with 3A9, 2A11 or A6.A2 employed 3 mg/ml tryptic digest of HEL as a source of pre-processed antigen, i.e., peptide. Cultures were incubated overnight at […] in a humidified 5% CO2, 95% air incubator.\nMulti-parameter flow cytometric analysis for the fluorescent detection of ectopic CLIP, mouse B220, human CD19 or CD20, human CLIP, human HLA-DR, and human CLIP or apoptosis were performed using a Beckman Coulter Excel or a Beckman Coulter FC500 flow cytometer (Beckman Coulter, Hialeah, Fla.). Mouse splenic cells were cultured in complete RPMI for the times indicated. Resting, primed, or activated B cells were cultured in the presence of T cells (vide supra). At the end of 16 h of culture, the cells were harvested and washed. Ethidium bromide (detected by red fluorescence) was added immediately before analysis of each tube. The cells were analyzed by first gating using forward vs. side scatter then using increased fluorescence as a measure of detection of the indicated cell surface antigens."}, "[1]": {"system": "CLIP^+ B cells in human PBMC", "assay": "Peptide replacement of CLIP on R848-activated human PBMC B cells", "type": "cell-based", "conditions": "PBMC of two donors cultured with R848 for 48 hours with peptide", "description": "(§1) FIG. 13 depicts TLR activation results in ectopic CLIP expression on human B cells from peripheral blood mononuclear cells (PBMC) cultures. FIG. 13a: human PBMC from five donors were cultured for 24 hours with toll ligands (CpG-ODN, LPS, Pam3Cys, and Poly I:C) and were stained with a pan anti-HLA-DR-FITC antibody (values of isotype controls were subtracted from the specific stains, ΔMFI). FIG. 13b: cells were stained using anti-human CLIP-FITC versus CD19-PE (values of isotype controls were subtracted from the specific stains, ΔMFI). For FIGS. 13a & 13b: nil vs. CpG p=0.06821; nil vs. LPS p=0.0390; nil vs. PAM p=0.0124. FIG. 13c: cells were stained for CLIP-FITC versus CD19-PE as described for FIG. 13b. The data represent the percent of total PBMC that are CLIP+ B cells subsequent to treatment. For FIG. 13c: nil vs. CpG p=0.0058; nil vs. LPS p=0.0254. […]\n(§2) PBMC were prepared from a total of seven adult normal donors, five for examining the effects of TLR binding on the percentage of ectopic CLIP^+ B cells and changes in mean fluorescence intensity of the CLIP staining resulting from TLR stimulation with CpG-ODN, LPS, Pam-3-Cys, and Poly I:C. […] Cells were analyzed using either a BD FacsCalibur, for the five samples, or a Coulter FC500 for the two tissue typed samples. […]"}, "[2]": {"system": "cell surface CLIP on Raji and Daudi cells", "assay": "Competition of synthetic peptides with cell surface CLIP (Fitc anti-human CLIP)", "type": "cell-based", "conditions": "biotinylated competing peptide", "excerpt": "Based on a computational model comparing the peptide content of TNP mixture and identifying those peptides that would have the likeliest ability to compete for the peptide/antigen binding site for MHC class II (human HLA-DR, DP, and DQ), several peptide candidates were synthesized and examined for activity. The purpose of the study was to determine if synthetic peptides can compete for binding with CLIP peptides as measured with either Fitc anti-human CLIP antibody or, comparatively in the case of biotinylated peptides, with Streptavidin.\nCell Culture Conditions: The Raji and Daudi cell lines were purchased from American Type Culture Collection, were thawed, and grown in RPMI 1640 medium supplemented with standard supplements, including 10% fetal calf serum, gentamycin, penicillin, streptomycin, sodium pyruvate, HEPES buffer, 1-glutamine, and 2-ME.\nProtocol: Cells were plated into a 12 well plate with 3 mls total volume containing approximately 1.5×10^6/well for Daudi cells and 3.0×10^6/well for Raji cells. Treatment groups included no treatment as control; MKN 3 and MKN 5 at 50 microMolar final concentration based on the reported molarity of the synthesized compounds.\nThe cells were incubated at 37° C. in an atmosphere containing 5% CO2 and approximately 92% humidity. The cells were incubated for 4 and 24 hours. At each time point, the cells from that experimental time were harvested and stained for flow cytometric analysis of cell surface expression of CLIP (MHC Class II invariant peptide, human) by using the commercially available (Becton/Dickinson/PHarmingen) anti-human CLIP Fitc. Catalogue #555981 versus Streptavidin.\nHarvested cells were stained using standard staining procedure that called for a 1:100 dilution of Fitc-anti-human CLIP or isotype control versus 1:200 dilution of the commercially prepared Streptavidin. Following staining on ice for 25 minutes, cells were washed with PBS/FCS and resuspended in 100 microliters and added to staining tubes containing 400 microliters of PBS. Samples were acquired and analyzed on a Coulter Excel Flow Cytometer.\nIn the Histogram analyses of FIGS. 5-7 the Y axis represents cell number of the 5000 live cells versus the X axis which is a reflection of relative Fitc fluorescence versus Streptavidin-PE (eBioscience, Cat. #12-4317) that will bind with high affinity to cell-bound biotinylated peptides. The distance between the histogram from the isotype control staining versus the histogram reflecting the specific stain and is a measure of level of cell surface CLIP or the biotinylated peptide when stained with Streptavidin on a population of live Raji or Daudi cells as indicated."}, "Raji or Daudi cells": {"system": "Raji or Daudi cells", "assay": "Cell surface CLIP and CD74 levels after MKN1 (bioCLIP)", "type": "cell-based, human", "description": "The ability of MKN1 (bioCLIP) to alter cell surface CLIP and CD74 levels was also determined using Raji or Daudi cells."}, "[3]": {"system": "human B cells from peripheral blood mononuclear cells (PBMC)", "assay": "TLR activation of human B cells in PBMC cultures: ectopic CLIP", "type": "cell-based", "conditions": "PBMC from five healthy donors, 24 hours, 5 μg per ml", "description": "as §1, §2"}}, "note": "No end group written: not given here. *: point of attachment. Biotin = O=C1N[C@H]2[C@H](CS[C@H]2CCCCC(=O)*)N1"}
{"molecule": "O=CC[C@@H](O)[C@H](O)[C@H](O)CO", "note": "[2-Deoxyglucose, 2-deoxy-D-glucose]", "values": [{"measurement": "B cell surface CLIP", "setting": "B cell surface CLIP", "result": "affects B cell surface CLIP"}]}
{"molecule": "CCOCc1nc2c(N)nc3ccccc3c2n1CC(C)(C)O", "note": "[R848, imidazoquinoline resiquimod]", "values": [{"measurement": "exogenous CLIP expression on activated mouse B cells", "setting": "mouse splenic B cells", "result": "resulted in exogenous CLIP expression on the activated mouse B cells"}]}
{"molecule": "(S)-(2,3-bis(palmitoyloxy)-(2RS)-propyl)-N-palmitoyl-(R)-Cys-(S)-Ser(S)-Lys4-OH, trihydrochloride [Pam3Cys]", "values": [{"measurement": "exogenous CLIP expression on activated mouse B cells", "setting": "mouse splenic B cells", "result": "resulted in exogenous CLIP expression on the activated mouse B cells"}]}
{"molecule": "ANSGIIGDITEEVGGQY [VGV-pB]", "values": [{"measurement": "percentage of CLIP^+ B cells and level of CLIP per B cell", "setting": "[1]", "result": "reduced the frequency of CLIP^+ B cells and the level of CLIP per cell in one individual but not the other"}]}
{"molecule": "KALVQNDTLLQVKG [SEQ ID NO 1]", "values": [{"measurement": "cell surface bound CLIP", "setting": "[2]; 4 hours", "result": "small decreases in cell surface bound CLIP"}, {"measurement": "cell surface bound CLIP", "setting": "[2]; 24 hours", "result": "significant decreases"}]}
{"molecule": "SGGGSKMRMATPLLMQALY (Biotin-SGGGSKMRMATPLLMQALY) [MKN1]", "values": [{"measurement": "cell surface CLIP and CD74 levels", "setting": "Raji or Daudi cells", "result": "alters cell surface CLIP and CD74 levels"}]}
{"molecule": "lipopolysaccharide [LPS]", "values": [{"measurement": "exogenous CLIP associated with MHC class II on splenic B cells", "setting": "mouse splenic B cells; in vitro stimulation of resting mouse splenocytes, 0 to 72 hours", "result": "time-dependent increase in exogenous CLIP associated with MHC class II"}, {"measurement": "exogenous CLIP expression on activated mouse B cells", "setting": "mouse splenic B cells", "result": "resulted in exogenous CLIP expression on the activated mouse B cells"}, {"measurement": "ectopic CLIP on human B cells", "setting": "[3]", "result": "Statistically significant increases in ectopic CLIP"}]}
{"molecule": "polyinosinic:polycytidylic acid [Poly I:C]", "values": [{"measurement": "exogenous CLIP expression on activated mouse B cells", "setting": "mouse splenic B cells", "result": "resulted in exogenous CLIP expression on the activated mouse B cells"}]}
